{
  "source": "PubChem BioAssay AID2060496",
  "about": "(Molecular Pharmacology Branch, DTP, NCI, 2025);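 note: spheroids exposed to drugs for seven days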;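 for viability, T/C: 100% = DMSO vehicle control viability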",
  "test_system": "276233-004-R-J1-PDC complex spheroid viability",
  "experiment": "Anticancer human tumor 276233-004-R-J1-PDC patient-derived colon adenocarcinoma cell line growth inhibition [GQUAD]",
  "conditions": "for IC50: curve of first compound; for viability, T/C: stronger effect = lower value",
  "outline": "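Viability of tumor cells grown as complex spheroids with endothelial and stromal cells, exposed to drug combinations. Top concentration at or near clinical Cmax (else 10 microM), diluted in half-log increments.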",
  "key": {"[1]": {"conditions": "second compound 0.0316 µM, first compound 0.0316 µM"}, "[2]": {"conditions": "second compound 0.0316 µM, first compound 0.316 µM"}, "[3]": {"conditions": "second compound 0.1 µM, first compound 0.0316 µM"}, "[4]": {"conditions": "second compound 0.1 µM, first compound 0.316 µM"}, "[5]": {"conditions": "second compound 0.316 µM, first compound 0.0316 µM"}, "[6]": {"conditions": "second compound 0.316 µM, first compound 0.316 µM"}, "[7]": {"conditions": "second compound 1 µM, first compound 0.0316 µM"}, "[8]": {"conditions": "second compound 1 µM, first compound 0.316 µM"}, "[9]": {"conditions": "second compound 3.16 µM, first compound 0.0316 µM"}, "[10]": {"conditions": "second compound 3.16 µM, first compound 0.316 µM"}, "[11]": {"conditions": "second compound 10 µM, first compound 0.0316 µM"}, "[12]": {"conditions": "second compound 10 µM, first compound 0.316 µM"}},
  "data": [
    {"smiles": "Cc1cccc(N(C)C(=O)C2C(O)CCN2c2nc(C)cc(C(F)(F)F)c2C#N)c1", "note": "(centres undefined) + CN(C)c1ccc(Nc2c3ccc(NC(=O)CCN4CCCC4)cc3nc3cc(NC(=O)CCN4CCCC4)ccc23)cc1", "values": [
      {"measurement": "IC50", "setting": "second compound 0.0316 µM", "result": "> 10000", "unit": "nM"},
      {"measurement": "IC50", "setting": "second compound 0.1 µM", "result": "> 10000", "unit": "nM"},
      {"measurement": "IC50", "setting": "second compound 0.316 µM", "result": "> 10000", "unit": "nM"},
      {"measurement": "IC50", "setting": "second compound 1 µM", "result": "> 10000", "unit": "nM"},
      {"measurement": "IC50", "setting": "second compound 3.16 µM", "result": "> 10000", "unit": "nM"},
      {"measurement": "IC50", "setting": "second compound 10 µM", "result": "< 31.6", "unit": "nM"},
      {"measurement": "viability, T/C", "setting": "[1]", "result": 77.3, "unit": "%"},
      {"measurement": "viability, T/C", "setting": "second compound 0.0316 µM, first compound 0.1 µM", "result": 74.1, "unit": "%"},
      {"measurement": "viability, T/C", "setting": "[2]", "result": 86.7, "unit": "%"},
      {"measurement": "viability, T/C", "setting": "second compound 0.0316 µM, first compound 1 µM", "result": 97.1, "unit": "%"},
      {"measurement": "viability, T/C", "setting": "second compound 0.0316 µM, first compound 3.16 µM", "result": 98.1, "unit": "%"},
      {"measurement": "viability, T/C", "setting": "second compound 0.0316 µM, first compound 10 µM", "result": 101, "unit": "%"},
      {"measurement": "viability, T/C", "setting": "[3]", "result": 96.8, "unit": "%"},
      {"measurement": "viability, T/C", "setting": "second compound 0.1 µM, first compound 0.1 µM", "result": 98.1, "unit": "%"},
      {"measurement": "viability, T/C", "setting": "[4]", "result": 89.5, "unit": "%"},
      {"measurement": "viability, T/C", "setting": "second compound 0.1 µM, first compound 1 µM", "result": 89.2, "unit": "%"},
      {"measurement": "viability, T/C", "setting": "second compound 0.1 µM, first compound 3.16 µM", "result": 86.5, "unit": "%"},
      {"measurement": "viability, T/C", "setting": "second compound 0.1 µM, first compound 10 µM", "result": 96, "unit": "%"},
      {"measurement": "viability, T/C", "setting": "[5]", "result": 71.2, "unit": "%"},
      {"measurement": "viability, T/C", "setting": "second compound 0.316 µM, first compound 0.1 µM", "result": 75.4, "unit": "%"},
      {"measurement": "viability, T/C", "setting": "[6]", "result": 73.2, "unit": "%"},
      {"measurement": "viability, T/C", "setting": "second compound 0.316 µM, first compound 1 µM", "result": 50.7, "unit": "%"},
      {"measurement": "viability, T/C", "setting": "second compound 0.316 µM, first compound 3.16 µM", "result": 60.5, "unit": "%"},
      {"measurement": "viability, T/C", "setting": "second compound 0.316 µM, first compound 10 µM", "result": 68.1, "unit": "%"},
      {"measurement": "viability, T/C", "setting": "[7]", "result": 57.3, "unit": "%"},
      {"measurement": "viability, T/C", "setting": "second compound 1 µM, first compound 0.1 µM", "result": 47.1, "unit": "%"},
      {"measurement": "viability, T/C", "setting": "[8]", "result": 63.1, "unit": "%"},
      {"measurement": "viability, T/C", "setting": "second compound 1 µM, first compound 1 µM", "result": 57.6, "unit": "%"},
      {"measurement": "viability, T/C", "setting": "second compound 1 µM, first compound 3.16 µM", "result": 51.2, "unit": "%"},
      {"measurement": "viability, T/C", "setting": "second compound 1 µM, first compound 10 µM", "result": 64.9, "unit": "%"},
      {"measurement": "viability, T/C", "setting": "[9]", "result": 51, "unit": "%"},
      {"measurement": "viability, T/C", "setting": "second compound 3.16 µM, first compound 0.1 µM", "result": 49.3, "unit": "%"},
      {"measurement": "viability, T/C", "setting": "[10]", "result": 50.6, "unit": "%"},
      {"measurement": "viability, T/C", "setting": "second compound 3.16 µM, first compound 1 µM", "result": 55.9, "unit": "%"},
      {"measurement": "viability, T/C", "setting": "second compound 3.16 µM, first compound 3.16 µM", "result": 65.8, "unit": "%"},
      {"measurement": "viability, T/C", "setting": "second compound 3.16 µM, first compound 10 µM", "result": 68.7, "unit": "%"},
      {"measurement": "viability, T/C", "setting": "[11]", "result": 39.7, "unit": "%"},
      {"measurement": "viability, T/C", "setting": "second compound 10 µM, first compound 0.1 µM", "result": 51.5, "unit": "%"},
      {"measurement": "viability, T/C", "setting": "[12]", "result": 41.2, "unit": "%"},
      {"measurement": "viability, T/C", "setting": "second compound 10 µM, first compound 1 µM", "result": 72.6, "unit": "%"},
      {"measurement": "viability, T/C", "setting": "second compound 10 µM, first compound 3.16 µM", "result": 63.1, "unit": "%"},
      {"measurement": "viability, T/C", "setting": "second compound 10 µM, first compound 10 µM", "result": 54.8, "unit": "%"}
    ]},
    {"smiles": "Cc1[nH]c2ccccc2c1CCNCc1ccc(/C=C/C(=O)NO)cc1", "note": "+ Cc1[nH]c2ccc(F)cc2c1-c1nc2c3cccnc3c3ncccc3c2[nH]1", "values": [
      {"measurement": "IC50", "setting": "second compound 0.0316 µM", "result": 102, "unit": "nM"},
      {"measurement": "IC50", "setting": "second compound 0.1 µM", "result": 72.1, "unit": "nM"},
      {"measurement": "IC50", "setting": "second compound 0.316 µM", "result": 45.2, "unit": "nM"},
      {"measurement": "IC50", "setting": "second compound 1 µM", "result": 39, "unit": "nM"},
      {"measurement": "IC50", "setting": "second compound 3.16 µM", "result": "< 0.999", "unit": "nM"},
      {"measurement": "IC50", "setting": "second compound 10 µM", "result": "< 0.999", "unit": "nM"},
      {"measurement": "viability, T/C", "setting": "second compound 0.0316 µM, first compound 0.000999 µM", "result": 82.7, "unit": "%"},
      {"measurement": "viability, T/C", "setting": "second compound 0.0316 µM, first compound 0.00316 µM", "result": 100, "unit": "%"},
      {"measurement": "viability, T/C", "setting": "second compound 0.0316 µM, first compound 0.00999 µM", "result": 82.1, "unit": "%"},
      {"measurement": "viability, T/C", "setting": "[1]", "result": 96, "unit": "%"},
      {"measurement": "viability, T/C", "setting": "second compound 0.0316 µM, first compound 0.0999 µM", "result": 50.5, "unit": "%"},
      {"measurement": "viability, T/C", "setting": "[2]", "result": 13.1, "unit": "%"},
      {"measurement": "viability, T/C", "setting": "second compound 0.1 µM, first compound 0.000999 µM", "result": 76.9, "unit": "%"},
      {"measurement": "viability, T/C", "setting": "second compound 0.1 µM, first compound 0.00316 µM", "result": 84.2, "unit": "%"},
      {"measurement": "viability, T/C", "setting": "second compound 0.1 µM, first compound 0.00999 µM", "result": 62.8, "unit": "%"},
      {"measurement": "viability, T/C", "setting": "[3]", "result": 68, "unit": "%"},
      {"measurement": "viability, T/C", "setting": "second compound 0.1 µM, first compound 0.0999 µM", "result": 43.9, "unit": "%"},
      {"measurement": "viability, T/C", "setting": "[4]", "result": 10.9, "unit": "%"},
      {"measurement": "viability, T/C", "setting": "second compound 0.316 µM, first compound 0.000999 µM", "result": 64.2, "unit": "%"},
      {"measurement": "viability, T/C", "setting": "second compound 0.316 µM, first compound 0.00316 µM", "result": 62.3, "unit": "%"},
      {"measurement": "viability, T/C", "setting": "second compound 0.316 µM, first compound 0.00999 µM", "result": 46.5, "unit": "%"},
      {"measurement": "viability, T/C", "setting": "[5]", "result": 64, "unit": "%"},
      {"measurement": "viability, T/C", "setting": "second compound 0.316 µM, first compound 0.0999 µM", "result": 26.4, "unit": "%"},
      {"measurement": "viability, T/C", "setting": "[6]", "result": 32.4, "unit": "%"},
      {"measurement": "viability, T/C", "setting": "second compound 1 µM, first compound 0.000999 µM", "result": 58.9, "unit": "%"},
      {"measurement": "viability, T/C", "setting": "second compound 1 µM, first compound 0.00316 µM", "result": 44.6, "unit": "%"},
      {"measurement": "viability, T/C", "setting": "second compound 1 µM, first compound 0.00999 µM", "result": 65.7, "unit": "%"},
      {"measurement": "viability, T/C", "setting": "[7]", "result": 50.8, "unit": "%"},
      {"measurement": "viability, T/C", "setting": "second compound 1 µM, first compound 0.0999 µM", "result": 37.1, "unit": "%"},
      {"measurement": "viability, T/C", "setting": "[8]", "result": 7.17, "unit": "%"},
      {"measurement": "viability, T/C", "setting": "second compound 3.16 µM, first compound 0.000999 µM", "result": 18.3, "unit": "%"},
      {"measurement": "viability, T/C", "setting": "second compound 3.16 µM, first compound 0.00316 µM", "result": 15.9, "unit": "%"},
      {"measurement": "viability, T/C", "setting": "second compound 3.16 µM, first compound 0.00999 µM", "result": 21.4, "unit": "%"},
      {"measurement": "viability, T/C", "setting": "[9]", "result": 13.6, "unit": "%"},
      {"measurement": "viability, T/C", "setting": "second compound 3.16 µM, first compound 0.0999 µM", "result": 7.05, "unit": "%"},
      {"measurement": "viability, T/C", "setting": "[10]", "result": 6.05, "unit": "%"},
      {"measurement": "viability, T/C", "setting": "second compound 10 µM, first compound 0.000999 µM", "result": 35.8, "unit": "%"},
      {"measurement": "viability, T/C", "setting": "second compound 10 µM, first compound 0.00316 µM", "result": 45.9, "unit": "%"},
      {"measurement": "viability, T/C", "setting": "second compound 10 µM, first compound 0.00999 µM", "result": 36.5, "unit": "%"},
      {"measurement": "viability, T/C", "setting": "[11]", "result": 39.7, "unit": "%"},
      {"measurement": "viability, T/C", "setting": "second compound 10 µM, first compound 0.0999 µM", "result": 35.3, "unit": "%"},
      {"measurement": "viability, T/C", "setting": "[12]", "result": 17.5, "unit": "%"}
    ]}
  ]
}
